Measurements as given in the NIST ThermoML archive (doi:10.1021/je700152c).
Numbers after ± are expanded uncertainties.

Test: molar heat capacity at saturation pressure

CCCCn1cc[n+](C)c1.Cc1ccc(S(=O)(=O)[O-])cc1 [1-butyl-3-methylimidazolium tosylate]
molar heat capacity (205.31 K, Metastable crystal): 319.1 ± 3.4 J/K/mol
molar heat capacity (205.46 K, Crystal 1): 296.26 ± 3.1 J/K/mol
molar heat capacity (207.12 K, Crystal 1): 298.09 ± 3.1 J/K/mol
molar heat capacity (207.15 K, Crystal 1): 298.12 ± 3.1 J/K/mol
molar heat capacity (207.23 K, Metastable crystal): 320.66 ± 3.4 J/K/mol
molar heat capacity (207.42 K, Crystal 1): 298.43 ± 3.1 J/K/mol
molar heat capacity (209.08 K, Crystal 1): 300.36 ± 3.1 J/K/mol
molar heat capacity (209.12 K, Crystal 1): 300.45 ± 3.1 J/K/mol
molar heat capacity (209.16 K, Metastable crystal): 322.21 ± 3.4 J/K/mol
molar heat capacity (209.38 K, Crystal 1): 300.6 ± 3.1 J/K/mol
molar heat capacity (211.04 K, Crystal 1): 302.62 ± 3.2 J/K/mol
molar heat capacity (211.08 K, Metastable crystal): 323.45 ± 3.4 J/K/mol
molar heat capacity (211.09 K, Crystal 1): 302.68 ± 3.2 J/K/mol
molar heat capacity (211.34 K, Crystal 1): 302.99 ± 3.2 J/K/mol
molar heat capacity (213 K, Crystal 1): 304.79 ± 3.2 J/K/mol
molar heat capacity (213 K, Metastable crystal): 325 ± 3.4 J/K/mol
molar heat capacity (213.05 K, Crystal 1): 304.92 ± 3.2 J/K/mol
molar heat capacity (213.31 K, Crystal 1): 305.26 ± 3.2 J/K/mol
molar heat capacity (214.92 K, Metastable crystal): 326.24 ± 3.4 J/K/mol
molar heat capacity (214.96 K, Crystal 1): 307.15 ± 3.2 J/K/mol
molar heat capacity (215.01 K, Crystal 1): 307.18 ± 3.2 J/K/mol
molar heat capacity (215.27 K, Crystal 1): 307.65 ± 3.2 J/K/mol
molar heat capacity (216.84 K, Metastable crystal): 328.11 ± 3.4 J/K/mol
molar heat capacity (216.91 K, Crystal 1): 309.57 ± 3.2 J/K/mol
molar heat capacity (216.97 K, Crystal 1): 309.61 ± 3.2 J/K/mol
molar heat capacity (217.22 K, Crystal 1): 309.92 ± 3.2 J/K/mol
molar heat capacity (218.76 K, Metastable crystal): 329.66 ± 3.4 J/K/mol
molar heat capacity (218.87 K, Crystal 1): 311.96 ± 3.1 J/K/mol
molar heat capacity (218.93 K, Crystal 1): 311.96 ± 3.1 J/K/mol
molar heat capacity (219.18 K, Crystal 1): 312.59 ± 3.4 J/K/mol
molar heat capacity (220.68 K, Metastable crystal): 331.83 ± 3.4 J/K/mol
molar heat capacity (220.82 K, Crystal 1): 314.45 ± 3.4 J/K/mol
molar heat capacity (220.88 K, Crystal 1): 314.45 ± 3.4 J/K/mol
molar heat capacity (221.13 K, Crystal 1): 314.76 ± 3.4 J/K/mol
molar heat capacity (222.6 K, Metastable crystal): 333.69 ± 3.4 J/K/mol
molar heat capacity (222.77 K, Crystal 1): 317.86 ± 3.4 J/K/mol
molar heat capacity (222.83 K, Crystal 1): 317.24 ± 3.4 J/K/mol
molar heat capacity (223.07 K, Crystal 1): 317.55 ± 3.4 J/K/mol
molar heat capacity (224.51 K, Metastable crystal): 336.8 ± 3.4 J/K/mol
molar heat capacity (224.72 K, Crystal 1): 321.28 ± 3.4 J/K/mol
molar heat capacity (224.77 K, Crystal 1): 321.9 ± 3.4 J/K/mol
molar heat capacity (225.01 K, Crystal 1): 321.59 ± 3.4 J/K/mol
molar heat capacity (226.41 K, Metastable crystal): 340.21 ± 3.4 J/K/mol
molar heat capacity (226.65 K, Crystal 1): 326.86 ± 3.4 J/K/mol
molar heat capacity (226.7 K, Crystal 1): 326.55 ± 3.4 J/K/mol
molar heat capacity (226.94 K, Crystal 1): 328.11 ± 3.4 J/K/mol
molar heat capacity (228.3 K, Metastable crystal): 347.04 ± 3.7 J/K/mol
molar heat capacity (228.56 K, Crystal 1): 332.14 ± 3.4 J/K/mol
molar heat capacity (228.61 K, Crystal 1): 331.83 ± 3.4 J/K/mol
molar heat capacity (228.85 K, Crystal 1): 333.69 ± 3.4 J/K/mol
molar heat capacity (230.18 K, Metastable crystal): 352.94 ± 3.7 J/K/mol
molar heat capacity (230.47 K, Crystal 1): 336.18 ± 3.4 J/K/mol
molar heat capacity (230.52 K, Crystal 1): 335.56 ± 3.4 J/K/mol
molar heat capacity (230.75 K, Crystal 1): 336.8 ± 3.4 J/K/mol
molar heat capacity (232.06 K, Metastable crystal): 355.11 ± 3.7 J/K/mol
molar heat capacity (232.37 K, Crystal 1): 339.9 ± 3.4 J/K/mol
molar heat capacity (232.43 K, Crystal 1): 338.97 ± 3.4 J/K/mol
molar heat capacity (232.65 K, Crystal 1): 340.21 ± 3.4 J/K/mol
molar heat capacity (233.94 K, Metastable crystal): 356.97 ± 3.7 J/K/mol
molar heat capacity (234.27 K, Crystal 1): 341.76 ± 3.4 J/K/mol
molar heat capacity (234.33 K, Crystal 1): 341.76 ± 3.4 J/K/mol
molar heat capacity (234.55 K, Crystal 1): 342.7 ± 3.4 J/K/mol
molar heat capacity (235.82 K, Metastable crystal): 358.22 ± 3.7 J/K/mol
molar heat capacity (236.17 K, Crystal 1): 343.94 ± 3.7 J/K/mol
molar heat capacity (236.24 K, Crystal 1): 343.01 ± 3.4 J/K/mol
molar heat capacity (236.45 K, Crystal 1): 344.25 ± 3.7 J/K/mol
molar heat capacity (237.7 K, Metastable crystal): 359.46 ± 3.7 J/K/mol
molar heat capacity (238.07 K, Crystal 1): 346.11 ± 3.7 J/K/mol
molar heat capacity (238.14 K, Crystal 1): 345.18 ± 3.7 J/K/mol
molar heat capacity (238.35 K, Crystal 1): 346.42 ± 3.7 J/K/mol
molar heat capacity (239.58 K, Metastable crystal): 361.01 ± 3.7 J/K/mol
molar heat capacity (239.97 K, Crystal 1): 348.28 ± 3.7 J/K/mol
molar heat capacity (240.04 K, Crystal 1): 347.35 ± 3.7 J/K/mol
molar heat capacity (240.25 K, Crystal 1): 348.9 ± 3.7 J/K/mol
molar heat capacity (241.45 K, Metastable crystal): 362.87 ± 3.7 J/K/mol
molar heat capacity (241.87 K, Crystal 1): 350.46 ± 3.7 J/K/mol
molar heat capacity (241.94 K, Crystal 1): 349.52 ± 3.7 J/K/mol
molar heat capacity (242.14 K, Crystal 1): 350.77 ± 3.7 J/K/mol
molar heat capacity (243.33 K, Metastable crystal): 364.42 ± 3.7 J/K/mol
molar heat capacity (243.76 K, Crystal 1): 352.32 ± 3.7 J/K/mol
molar heat capacity (243.83 K, Crystal 1): 351.7 ± 3.7 J/K/mol
molar heat capacity (244.04 K, Crystal 1): 352.94 ± 3.7 J/K/mol
molar heat capacity (245.21 K, Metastable crystal): 365.98 ± 3.7 J/K/mol
molar heat capacity (245.66 K, Crystal 1): 354.49 ± 3.7 J/K/mol
molar heat capacity (245.73 K, Crystal 1): 353.87 ± 3.7 J/K/mol
molar heat capacity (245.93 K, Crystal 1): 355.11 ± 3.7 J/K/mol
molar heat capacity (247.08 K, Metastable crystal): 367.84 ± 3.7 J/K/mol
molar heat capacity (247.55 K, Crystal 1): 356.97 ± 3.7 J/K/mol
molar heat capacity (247.62 K, Crystal 1): 356.04 ± 3.7 J/K/mol
molar heat capacity (247.82 K, Crystal 1): 357.29 ± 3.7 J/K/mol
molar heat capacity (248.96 K, Metastable crystal): 369.39 ± 3.7 J/K/mol
molar heat capacity (249.44 K, Crystal 1): 359.15 ± 3.7 J/K/mol
molar heat capacity (249.51 K, Crystal 1): 358.53 ± 3.7 J/K/mol
molar heat capacity (249.71 K, Crystal 1): 359.46 ± 3.7 J/K/mol
molar heat capacity (250.83 K, Metastable crystal): 371.25 ± 3.7 J/K/mol
molar heat capacity (251.33 K, Crystal 1): 361.32 ± 3.7 J/K/mol
molar heat capacity (251.4 K, Crystal 1): 360.39 ± 3.7 J/K/mol
molar heat capacity (251.59 K, Crystal 1): 361.63 ± 3.7 J/K/mol
molar heat capacity (252.7 K, Metastable crystal): 372.81 ± 3.7 J/K/mol
molar heat capacity (253.22 K, Crystal 1): 363.49 ± 3.7 J/K/mol
molar heat capacity (253.29 K, Crystal 1): 362.87 ± 3.7 J/K/mol
molar heat capacity (253.47 K, Crystal 1): 363.8 ± 3.7 J/K/mol
molar heat capacity (254.58 K, Metastable crystal): 374.67 ± 3.7 J/K/mol
molar heat capacity (255.11 K, Crystal 1): 365.67 ± 3.7 J/K/mol
molar heat capacity (255.17 K, Crystal 1): 364.74 ± 3.7 J/K/mol
molar heat capacity (255.35 K, Crystal 1): 365.98 ± 3.7 J/K/mol
molar heat capacity (256.45 K, Metastable crystal): 376.53 ± 4 J/K/mol
molar heat capacity (256.99 K, Crystal 1): 367.84 ± 3.7 J/K/mol
molar heat capacity (257.06 K, Crystal 1): 367.22 ± 3.7 J/K/mol
molar heat capacity (257.23 K, Crystal 1): 368.15 ± 3.7 J/K/mol
molar heat capacity (258.32 K, Metastable crystal): 378.39 ± 4 J/K/mol
molar heat capacity (258.88 K, Crystal 1): 370.01 ± 3.7 J/K/mol
molar heat capacity (258.94 K, Crystal 1): 369.08 ± 3.7 J/K/mol
molar heat capacity (259.11 K, Crystal 1): 370.32 ± 3.7 J/K/mol
molar heat capacity (260.2 K, Metastable crystal): 380.26 ± 4 J/K/mol
molar heat capacity (260.77 K, Crystal 1): 372.19 ± 3.7 J/K/mol
molar heat capacity (260.82 K, Crystal 1): 371.56 ± 3.7 J/K/mol
molar heat capacity (261 K, Crystal 1): 372.5 ± 3.7 J/K/mol
molar heat capacity (262.07 K, Metastable crystal): 381.81 ± 4 J/K/mol
molar heat capacity (262.65 K, Crystal 1): 374.36 ± 3.7 J/K/mol
molar heat capacity (262.71 K, Crystal 1): 373.43 ± 3.7 J/K/mol
molar heat capacity (262.87 K, Crystal 1): 374.67 ± 3.7 J/K/mol
molar heat capacity (263.94 K, Metastable crystal): 383.36 ± 4 J/K/mol
molar heat capacity (264.53 K, Crystal 1): 376.22 ± 4 J/K/mol
molar heat capacity (264.59 K, Crystal 1): 375.6 ± 3.7 J/K/mol
molar heat capacity (264.75 K, Crystal 1): 376.53 ± 4 J/K/mol
molar heat capacity (265.82 K, Metastable crystal): 385.53 ± 4 J/K/mol
molar heat capacity (266.42 K, Crystal 1): 378.39 ± 4 J/K/mol
molar heat capacity (266.47 K, Crystal 1): 377.46 ± 4 J/K/mol
molar heat capacity (266.63 K, Crystal 1): 378.39 ± 4 J/K/mol
molar heat capacity (267.69 K, Metastable crystal): 387.4 ± 4 J/K/mol
molar heat capacity (268.31 K, Crystal 1): 380.57 ± 4 J/K/mol
molar heat capacity (268.36 K, Crystal 1): 379.63 ± 4 J/K/mol
molar heat capacity (268.52 K, Crystal 1): 380.88 ± 4 J/K/mol
molar heat capacity (269.56 K, Metastable crystal): 388.95 ± 4 J/K/mol
molar heat capacity (270.19 K, Crystal 1): 382.43 ± 4 J/K/mol
molar heat capacity (270.25 K, Crystal 1): 381.81 ± 4 J/K/mol
molar heat capacity (270.4 K, Crystal 1): 382.74 ± 4 J/K/mol
molar heat capacity (271.43 K, Metastable crystal): 391.12 ± 4 J/K/mol
molar heat capacity (272.08 K, Crystal 1): 384.6 ± 4 J/K/mol
molar heat capacity (272.14 K, Crystal 1): 383.36 ± 4 J/K/mol
molar heat capacity (272.29 K, Crystal 1): 384.6 ± 4 J/K/mol
molar heat capacity (273.3 K, Metastable crystal): 393.6 ± 4 J/K/mol
molar heat capacity (273.97 K, Crystal 1): 386.46 ± 4 J/K/mol
molar heat capacity (274.03 K, Crystal 1): 385.53 ± 4 J/K/mol
molar heat capacity (274.19 K, Crystal 1): 386.46 ± 4 J/K/mol
molar heat capacity (275.16 K, Metastable crystal): 396.09 ± 4 J/K/mol
molar heat capacity (275.87 K, Crystal 1): 388.64 ± 4 J/K/mol
molar heat capacity (275.92 K, Crystal 1): 388.02 ± 4 J/K/mol
molar heat capacity (276.08 K, Crystal 1): 388.33 ± 4 J/K/mol
molar heat capacity (277.01 K, Metastable crystal): 399.5 ± 4 J/K/mol
molar heat capacity (277.76 K, Crystal 1): 391.12 ± 4 J/K/mol
molar heat capacity (277.8 K, Crystal 1): 390.5 ± 4 J/K/mol
molar heat capacity (277.97 K, Crystal 1): 390.81 ± 4 J/K/mol
molar heat capacity (278.86 K, Metastable crystal): 403.54 ± 4 J/K/mol
molar heat capacity (279.64 K, Crystal 1): 393.6 ± 4 J/K/mol
molar heat capacity (279.67 K, Crystal 1): 393.29 ± 4 J/K/mol
molar heat capacity (279.85 K, Crystal 1): 393.6 ± 4 J/K/mol
molar heat capacity (280.7 K, Metastable crystal): 407.57 ± 4.3 J/K/mol
molar heat capacity (281.51 K, Crystal 1): 396.71 ± 4 J/K/mol
molar heat capacity (281.53 K, Crystal 1): 397.02 ± 4 J/K/mol
molar heat capacity (281.71 K, Crystal 1): 397.02 ± 4 J/K/mol
molar heat capacity (282.53 K, Metastable crystal): 410.68 ± 4.3 J/K/mol
